# According to article PMC10313368 (The Journal of Clinical Investigation, 2023):
# “And” between values parts separate entries of the source, which are not always exact repeats. Equal values may be shown once.
# What was measured:
# [1] = system: HIF-regulated angiogenic mediators; assay: mRNA expression of HIF-regulated vasoactive mediators in OIR mouse retina (qPCR); assay type: in vivo
# Experimental: (§1) Reverse transcription and quantitative real-time PCR. Total RNA was isolated from cultured cells or retinas with PureLinkTM RNA Mini Kit (Invitrogen #12183025), and cDNA was prepared with MuLV Reverse Transcriptase (Applied Biosystems). Quantitative real-time PCR was performed with Power SYBR Green PCR Master Mix (Applied Biosystems) and MyiQ Real-Time PCR Detection System (Bio-Rad). Normalization was done using cyclophilin A for mouse tissue and human cell lines. Primers are listed in Supplemental Table 2. […]
# Animal studies. Eight-week-old pathogen-free female C57BL/6 mice were obtained from The Jackson Laboratory (JAX). Timed pregnant C57BL/6 mice were obtained from Charles River Laboratories. Mice heterozygous for HIF-1α have been previously described (2). Mice heterozygous for HIF-2α (strain number: 003266; common name: EPAS1 KO) were purchased […]
# OIR mouse model. OIR experiments were performed as previously described (1, 3). Briefly, C57BL/6 mice were placed in 75% O2 on P7. On P12, the mice were returned to room air and were […]
# (or vehicle) by intravitreal injection. Mice with body weight less than 6 g at P17 were excluded […]
# from analysis. Data were collected from both males and females and the results were combined since there was no apparent difference between sexes. Representative images for selected time points from a minimum of three independent experiments are shown. Data from 3-8 pups were obtained at each time point. […]
# Intraperitoneal (IP) injections. […]
# intraperitoneally using an insulin syringe in OIR pups. […]
# the peritoneal cavity of neonatal C57BL/6 mice and STZ mice at indicated times, and the retinal vasculature and lysates for WB and qPCR were assessed at P17.
# Intraocular injections. Intravitreal injections were performed with a PLI-100A Pico-liter Microinjector (Warner Instruments, Harvard Bioscience) using pulled-glass micropipettes. Each micropipette was calibrated to deliver a 1 μl volume on depression of a foot switch. The mice were anesthetized with a ketamine (100 mg/kg) and xylazine (5mg/kg) mixture, and under a dissecting microscope, the sharpened tip of the micropipette was passed through the sclera just posterior to the limbus into the vitreous cavity and the foot switch was depressed, which caused fluid to […]
# [2] = system: STZ-induced diabetic mice; assay: Vascular permeability by Evans blue tracer method in STZ mice; assay type: in vivo, mouse; details: single intraocular injection 70 ng 32-134D
# Experimental: STZ-induced diabetes mouse model. 8-to-10 week-old male mice received an IP injection of STZ at 40 mg/kg of body weight in 0.1M of citrate buffer (pH 4.5) for 5 consecutive days. Normal chow and 10% sucrose water were provided during this period. 10% sucrose was discontinued and replaced with regular water on experimental day 6. […]
# Intraocular injections. Intravitreal injections were performed with a PLI-100A Pico-liter Microinjector (Warner Instruments, Harvard Bioscience) using pulled-glass micropipettes. Each micropipette was calibrated to deliver a 1 μl volume on depression of a foot switch. […]
# Images were captured with Zeiss fluorescent microscope. Eight fields per eye (2 fields per petal) including area of neovascularization were selected and fluorescence intensity was measured by ImageJ software. […]
# The eyes were enucleated and immediately immersed in 4% (wt/vol) paraformaldehyde for 2 hours at room temperature. […] Images were captured by Zeiss fluorescent microscope or confocal microscopy and fluorescence was quantified by the image J software (National Institutes […]
# of Health, Bethesda, MD). Blinded quantification of the number of leaking vessels was performed by manual counting of major leakage from capillaries from retinas of each group. […] Random fields were chosen from retinas where leakages were absent to determine baseline fluorescence that arise from capillaries. […]
# MIO-M1 cells = assay: qPCR of VEGF and ANGPTL4 mRNA in hypoxic MIO-M1 cells; assay type: cell-based, human; details: for Angptl4 mRNA / Vegfa mRNA: MIO-M1, 1%O2+32-134D 10μM, 20%O2 about 1, replicates, Figure 7H
# Experimental: MIO-M1, HUVECs, and ARPE19 cells were cultured in DMEM with 10% (vol/vol) FBS (Quality Biological) and 1% penicillin/streptomycin (Cellgro). A hypoxic chamber (Coy Laboratory Product Inc.; Two Glove Model) with 5% CO2, 94% N2, and 1% O2 gas concentration at 37°C was used to culture hypoxic cells. The control cells were cultured in an incubator maintained at 37°C, with 21% O2 and 5% CO2. […] Aflibercept was obtained from the Johns Hopkins University Pharmacy. […]
# as §1
# [3] = OIR+32-134D i.p. 20mg/kg, Figure 10C, replicates, 20 mg/kg
# [4] = OIR+32-134D i.p. 20mg/kg, Figure 10D, replicates, 20 mg/kg
# [5] = S Figure 4B, OIR mice, 14ng I.V., replicates
# [6] = S Figure 4B, OIR mice, 70ng I.V., replicates
smiles,measurement,setting,value
"Brc1ccc2c(-c3csc(-c4c[nH]c5c(Br)cccc45)n3)c[nH]c2c1 [32-134D, 4-(6-bromo-1H-indol-3-yl)-2-(7-bromo-1H-indol-3-yl)thiazole]",mRNA expression of key HIF-regulated vasoactive mediators in OIR mice (in words),[1]; 5 consecutive (P12–P16) i.p. injections 20 mg/kg 32-134D,marked reduction
same,Vegfa mRNA,"[1]; Figure 14B, OIR mice, 14ng I.V., individual replicates",2.554 and 2.472 and 2.429
same,Vegfa mRNA,"[1]; Figure 14B, OIR mice, 70ng I.V., individual replicates",1.453 and 1.941 and 2.696
same,"other key HIF-regulated angiogenic genes including Kdr, Angptl4, Epo, Serpine1 (in words)","[1]; OIR mice P17, single intraocular 32-134D (70 ng, Supplemental Figure 4) at P12",moderate reduction
same,Angptl4 mRNA,[1]; [3],1.959 and 1.886 and 1.828
same,Epo mRNA,[1]; [3],15.9268 and 13.6786 and 15.0565
same,Pdgfb mRNA,[1]; [3],7.756 and 6.2199 and 6.871
same,Vegfa mRNA,[1]; [3],4.717 and 4.578 and 4.299
same,Angpt2 mRNA,[1]; [4],1.455 and 1.394 and 1.541
same,Kdr mRNA,[1]; [4],1.28 and 1.296 and 1.315
same,Ptprb mRNA,[1]; [4],1.109 and 1.093 and 1.12
same,Serpine1 mRNA,[1]; [4],18.6807 and 17.1616 and 18.3924
same,Angptl4 mRNA,[1]; [5],1.665 and 1.591 and 1.559
same,Epo mRNA,[1]; [5],8.623 and 9.0589 and 6.546
same,Kdr mRNA,[1]; [5],1.18 and 1.183 and 1.04
same,Serpine1 mRNA,[1]; [5],4.654 and 4.995 and 4.51
same,Angptl4 mRNA,[1]; [6],1.678 and 1.5898 and 1.693
same,Epo mRNA,[1]; [6],5.752 and 6.783 and 6.508
same,Kdr mRNA,[1]; [6],1.345 and 1.2643 and 1.301
same,Serpine1 mRNA,[1]; [6],6.417 and 6.411 and 5.108
same,Vegfa mRNA expression in OIR mice (in words),[1]; single intraocular injection 32-134D 14 ng at P12,moderate reduction
same,vascular hyperpermeability in STZ mice (in words),[2],effectively inhibited vascular hyperpermeability
same,logIC50,"MIO-M1 cells; Figure 12B, [Inhibitor] vs. response (three parameters), best-fit value",0.5455
same,Angptl4 mRNA,MIO-M1 cells; 2hrs,0.3563 and 0.4262 and 0.3782
same,Vegfa mRNA,MIO-M1 cells; 2hrs,1.026 and 1.073 and 1.079
same,Angptl4 mRNA,MIO-M1 cells; 4hrs,1.791 and 1.687 and 2.018
same,Vegfa mRNA,MIO-M1 cells; 4hrs,1.517 and 1.493 and 1.343
same,Angptl4 mRNA,MIO-M1 cells; 8hrs,1.385 and 1.132 and 0.993
same,Vegfa mRNA,MIO-M1 cells; 8hrs,2.421 and 2.295 and 2.311
